The supplement of paper PMC10307832

Columns and labels:
Assay in all cases: relative viability (nuclei count vs DMSO), 5 days (fraction); higher = more cells survive
[1] = compound: C=CCn1c(=O)c2cnc(Nc3ccc(N4CCN(C)CC4)cc3)nc2n1-c1cccc(C(C)(C)O)n1 [Adavosertib] + CCNC(=O)c1noc(-c2cc(C(C)C)c(O)cc2O)c1-c1ccc(CN2CCOCC2)cc1 [Luminespib] (partner 0.01 µM)
Method in brief: (§1)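 Five library-drug doses in √10 steps were combined with a fixed anchor-drug dose, or a single drug was given alone, by pin tool to lung cancer cell lines in 1536-well plates the day after seeding. Nuclei were stained and counted after 5 days. Relative viability is the nuclei count in treated wells over that in vehicle wells, taken as the median of duplicate plates.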

[2] = compound: C=CCn1c(=O)c2cnc(Nc3ccc(N4CCN(C)CC4)cc3)nc2n1-c1cccc(C(C)(C)O)n1 [Adavosertib] + CS(=O)(=O)N1CCN(Cc2cc3nc(-c4cccc5[nH]ncc45)nc(N4CCOCC4)c3s2)CC1 [Pictilisib] (partner 1 µM)
Method in brief: as §1

[3] = compound: COc1nc(N)nc2c1ncn2[C@@H]1O[C@H](CO)[C@@H](O)[C@@H]1O [Nelarabine] + COc1cccc2cc(-c3nc([C@H]4CC[C@H](C(=O)O)CC4)n4ncnc(N)c34)[nH]c12 [OSI-027] (partner 0.5 µM)
Method in brief: as §1

[4] = compound: COc1nc(N)nc2c1ncn2[C@@H]1O[C@H](CO)[C@@H](O)[C@@H]1O [Nelarabine] + NC(=O)Nc1cc(-c2cccc(F)c2)sc1C(=O)N[C@H]1CCCNC1 [AZD7762] (partner 0.2 µM)
Method in brief: as §1

In the case of NCI-H2126, the relative viability ([1]; first compound 0.01 µM) is reported as 0.831, the relative viability ([1]; first compound 0.03162 µM) is reported as 0.832 and the relative viability ([1]; first compound 0.1 µM) is reported as 0.897. It also gave a relative viability ([1]; first compound 0.3162 µM) of 0.93, a relative viability ([2]; first compound 0.01 µM) of 0.531 and a relative viability ([2]; first compound 0.03162 µM) of 0.526. The relative viability ([2]; first compound 0.1 µM) was 0.506, the relative viability ([2]; first compound 0.3162 µM) was 0.521 and the relative viability ([3]; first compound 0.01 µM) was 0.761. The relative viability ([3]; first compound 0.03162 µM) was 0.724, the relative viability ([3]; first compound 0.1 µM) was 0.641 and the relative viability ([3]; first compound 0.3162 µM) was 0.771. The relative viability ([3]; first compound 1 µM) was 0.66, the relative viability ([4]; first compound 0.01 µM) was 1.02 and the relative viability ([4]; first compound 0.03162 µM) was 1.07. For the same cell line, the relative viability ([4]; first compound 0.1 µM) was 1.05, the relative viability ([4]; first compound 0.3162 µM) was 1.04 and the relative viability ([4]; first compound 1 µM) was 0.997.
In the case of NCI-H596, the relative viability ([1]; first compound 0.01 µM) is reported as 0.911, the relative viability ([1]; first compound 0.03162 µM) is reported as 1.2 and the relative viability ([1]; first compound 0.1 µM) is reported as 0.958. It also gave a relative viability ([1]; first compound 0.3162 µM) of 0.76, a relative viability ([2]; first compound 0.01 µM) of 0.338 and a relative viability ([2]; first compound 0.03162 µM) of 0.379. For the same cell line, the relative viability ([2]; first compound 0.1 µM) was 0.419, the relative viability ([2]; first compound 0.3162 µM) was 0.348 and the relative viability ([3]; first compound 0.01 µM) was 0.82. It also gave a relative viability ([3]; first compound 0.03162 µM) of 0.668, a relative viability ([3]; first compound 0.1 µM) of 0.698 and a relative viability ([3]; first compound 0.3162 µM) of 0.692. It also gave a relative viability ([3]; first compound 1 µM) of 0.792, a relative viability ([4]; first compound 0.01 µM) of 1.2 and a relative viability ([4]; first compound 0.03162 µM) of 1.01. For the same cell line, the relative viability ([4]; first compound 0.1 µM) was 1.05, the relative viability ([4]; first compound 0.3162 µM) was 1.22 and the relative viability ([4]; first compound 1 µM) was 1.23.
Cell Line NCI-H1944 has a relative viability ([1]; first compound 0.01 µM) of 0.696, a relative viability ([1]; first compound 0.03162 µM) of 0.715 and a relative viability ([1]; first compound 0.1 µM) of 0.655. It also gave a relative viability ([1]; first compound 0.3162 µM) of 0.575, a relative viability ([2]; first compound 0.01 µM) of 0.387 and a relative viability ([2]; first compound 0.03162 µM) of 0.333. The relative viability ([2]; first compound 0.1 µM) was 0.333, the relative viability ([2]; first compound 0.3162 µM) was 0.326 and the relative viability ([3]; first compound 0.01 µM) was 0.468. The relative viability ([3]; first compound 0.03162 µM) was 0.436, the relative viability ([3]; first compound 0.1 µM) was 0.442 and the relative viability ([3]; first compound 0.3162 µM) was 0.426. The relative viability ([3]; first compound 1 µM) was 0.455, the relative viability ([4]; first compound 0.01 µM) was 0.534 and the relative viability ([4]; first compound 0.03162 µM) was 0.4. It also gave a relative viability ([4]; first compound 0.1 µM) of 0.421, a relative viability ([4]; first compound 0.3162 µM) of 0.44 and a relative viability ([4]; first compound 1 µM) of 0.485.
Work on ABC-1 yielded a relative viability ([1]; first compound 0.01 µM) of 0.799, a relative viability ([1]; first compound 0.03162 µM) of 0.357 and a relative viability ([1]; first compound 0.1 µM) of 0.584. For the same cell line, the relative viability ([1]; first compound 0.3162 µM) was 0.364, the relative viability ([2]; first compound 0.01 µM) was 0.586 and the relative viability ([2]; first compound 0.03162 µM) was 0.695. It also gave a relative viability ([2]; first compound 0.1 µM) of 0.528, a relative viability ([2]; first compound 0.3162 µM) of 0.627 and a relative viability ([3]; first compound 0.01 µM) of 0.535. The relative viability ([3]; first compound 0.03162 µM) was 0.48, the relative viability ([3]; first compound 0.1 µM) was 0.38 and the relative viability ([3]; first compound 0.3162 µM) was 0.44. The relative viability ([3]; first compound 1 µM) was 0.477, the relative viability ([4]; first compound 0.03162 µM) was 0.839 and the relative viability ([4]; first compound 0.1 µM) was 0.766. It also gave a relative viability ([4]; first compound 0.3162 µM) of 0.845 and a relative viability ([4]; first compound 1 µM) of 0.78.
